For eight compounds, IC50 and viability, T/C results are on record in PubChem BioAssay AID2060614 (Molecular Pharmacology Branch, DTP, NCI, 2025).

This experiment relates to 598228-144-R-J1-PDC complex spheroids, viability. The experiment can be described thus: Anticancer human tumor 598228-144-R-J1-PDC patient-derived serous endometrial adenocarcinoma cell line growth inhibition [CLK]. The following applies: for viability, T/C: stronger effect = lower value. In a few lines: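 Multi-cell-type spheroids combined patient-derived tumor cells with HUVEC endothelial cells and human mesenchymal stem cells. Paired agents were dosed in half-log steps down from about clinical Cmax, or from 10 microM where Cmax was unknown.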

Setting [1] is: curve of first compound, second compound 0.0316 µM.
Where [2] appears, read: curve of first compound, second compound 0.1 µM.
Where [3] appears, read: curve of first compound, second compound 0.316 µM.
Where [4] appears, read: curve of first compound, second compound 1 µM.
The mark [5] stands for this setting: curve of first compound, second compound 3.16 µM.
Setting [6] is: curve of first compound, second compound 10 µM.
Where [7] appears, read: second compound 0.0316 µM, first compound 0.0316 µM.
Setting [8] is: second compound 0.0316 µM, first compound 0.1 µM.
Setting [9] is: second compound 0.0316 µM, first compound 0.316 µM.
[10] abbreviates: second compound 0.0316 µM, first compound 1 µM.
Where [11] appears, read: second compound 0.0316 µM, first compound 3.16 µM.
Setting [12] is: second compound 0.0316 µM, first compound 10 µM.
[13] abbreviates: second compound 0.1 µM, first compound 0.0316 µM.
Where [14] appears, read: second compound 0.1 µM, first compound 0.1 µM.
The mark [15] stands for this setting: second compound 0.1 µM, first compound 0.316 µM.
Where [16] appears, read: second compound 0.1 µM, first compound 1 µM.
[17] abbreviates: second compound 0.1 µM, first compound 3.16 µM.
The mark [18] stands for this setting: second compound 0.1 µM, first compound 10 µM.
Where [19] appears, read: second compound 0.316 µM, first compound 0.0316 µM.
[20] abbreviates: second compound 0.316 µM, first compound 0.1 µM.
Setting [21] is: second compound 0.316 µM, first compound 0.316 µM.
Setting [22] is: second compound 0.316 µM, first compound 1 µM.
Where [23] appears, read: second compound 0.316 µM, first compound 3.16 µM.
Where [24] appears, read: second compound 0.316 µM, first compound 10 µM.
The mark [25] stands for this setting: second compound 1 µM, first compound 0.0316 µM.
The mark [26] stands for this setting: second compound 1 µM, first compound 0.1 µM.
Setting [27] is: second compound 1 µM, first compound 0.316 µM.
[28] abbreviates: second compound 1 µM, first compound 1 µM.
Where [29] appears, read: second compound 1 µM, first compound 3.16 µM.
Setting [30] is: second compound 1 µM, first compound 10 µM.
The mark [31] stands for this setting: second compound 3.16 µM, first compound 0.0316 µM.
[32] abbreviates: second compound 3.16 µM, first compound 0.1 µM.
[33] abbreviates: second compound 3.16 µM, first compound 0.316 µM.
The mark [34] stands for this setting: second compound 3.16 µM, first compound 1 µM.
Setting [35] is: second compound 3.16 µM, first compound 3.16 µM.
The mark [36] stands for this setting: second compound 3.16 µM, first compound 10 µM.
[37] abbreviates: second compound 10 µM, first compound 0.0316 µM.
Setting [38] is: second compound 10 µM, first compound 0.1 µM.
Where [39] appears, read: second compound 10 µM, first compound 0.316 µM.
Setting [40] is: second compound 10 µM, first compound 1 µM.
[41] abbreviates: second compound 10 µM, first compound 3.16 µM.
Where [42] appears, read: second compound 10 µM, first compound 10 µM.

Where “and” joins values, the source holds several entries; their conditions need not be identical. Identical values can stand only once. Where only a bound is given, the exact number is not on record here.
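Note: spheroids exposed to compounds for seven days before readout.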
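Throughout, for viability, T/C: 100% = DMSO vehicle control wells.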

For the compound `CC1COCCN1c1cc(C2(S(C)(=N)=O)CC2)nc(-c2ccnc3[nH]ccc23)n1` (centres undefined) + CNC(=O)c1ccc(Nc2nc(OC3CCCC3)c3c(-c4ccc5nc(C)oc5c4)c[nH]c3n2)c(OC)c1, the half-maximal inhibitory concentration (IC50) is 9.48 µM under setting [1]; over 10 µM under setting [2]; over 10 µM under setting [3]; 6.79 µM under setting [4]; 3.3 µM under setting [5]; 2.53 µM under setting [6]. Moreover, the viability, T/C under setting [7] was 101%; the viability, T/C under setting [8] is 107%; the viability, T/C under setting [9] is 100%; the viability, T/C under setting [10] was 97.3%; the viability, T/C under setting [11] is 73.3%; the viability, T/C under setting [12] was 48.9%. Moreover, the viability, T/C is 105% under setting [13]; 107% under setting [14]; 115% under setting [15]; 104% under setting [16]; 68.5% under setting [17]; 57.5% under setting [18]. Also, the viability, T/C was 100% under setting [19]; 91.3% under setting [20]; 112% under setting [21]; 89% under setting [22]; 76.2% under setting [23]; 59.7% under setting [24]. Moreover, the viability, T/C runs as follows: under setting [25], 110%; under setting [26], 103%; under setting [27], 90.7%; under setting [28], 78.7%; under setting [29], 69.1%; under setting [30], 41.1%. Besides, the viability, T/C was 89.3% under setting [31]; 90.9% under setting [32]; 80.4% under setting [33]; 72.8% under setting [34]; 50.6% under setting [35]; 24.6% under setting [36]. Further, the viability, T/C by setting is: under setting [37], 79.6%; under setting [38], 77.5%; under setting [39], 85.6%; under setting [40], 64.6%; under setting [41], 46.9%; under setting [42], 20.6%.

Regarding `COc1ccc([C@@H](O)c2cc(-c3ncnc4cc(N5CCOCC5)ccc34)c(F)cc2Cl)nn1` + CNC(=O)c1ccc(Nc2nc(OC3CCCC3)c3c(-c4ccc5nc(C)oc5c4)c[nH]c3n2)c(OC)c1, the IC50 was found to be 6.49 µM under setting [1]; 5.47 µM under setting [2]; 4.05 µM under setting [3]; 3.67 µM under setting [4]; 3.71 µM under setting [5]; 2.27 µM under setting [6]. In addition, the viability, T/C under setting [7] was 120%; the viability, T/C under setting [8] is 109%; the viability, T/C under setting [9] is 99%; the viability, T/C under setting [10] is 94.9%; the viability, T/C under setting [11] was 61.8%; the viability, T/C under setting [12] was 41.3%. Also, the viability, T/C was 116% under setting [13]; 109% under setting [14]; 87.7% under setting [15]; 90.1% under setting [16]; 67.5% under setting [17]; 32.1% under setting [18]. For the same compound, the viability, T/C under setting [19] is 99.4%; the viability, T/C under setting [20] is 102%; the viability, T/C under setting [21] was 75.5%; the viability, T/C under setting [22] was 84.6%; the viability, T/C under setting [23] is 51.9%; the viability, T/C under setting [24] was 29.7%. Moreover, the viability, T/C is, setting by setting: under setting [25], 95.2%; under setting [26], 102%; under setting [27], 77%; under setting [28], 78.3%; under setting [29], 52.5%; under setting [30], 25.3%. Also, the viability, T/C under setting [31] was 94.3%; the viability, T/C under setting [32] was 74.7%; the viability, T/C under setting [33] is 90%; the viability, T/C under setting [34] is 75.1%; the viability, T/C under setting [35] was 53.9%; the viability, T/C under setting [36] is 27.4%. In addition, the viability, T/C under setting [37] is 88.9%; the viability, T/C under setting [38] was 90.9%; the viability, T/C under setting [39] was 81.7%; the viability, T/C under setting [40] is 77.5%; the viability, T/C under setting [41] was 38.9%; the viability, T/C under setting [42] is 28.9%.

`CN1CCN(c2cc(C(=O)Nc3cc4cc(-c5cnn(C)c5)ccc4cn3)ccn2)CC1`: the viability, T/C by setting is: (compound 0.316 µM) 17.4% [middle of 11 runs]; (compound 1 µM) 3.28% [middle of 12 runs]; (compound 3.16 µM) 2.39% [middle of 11 runs]; (compound 10 µM) 1% [middle of 11 runs]. Also, the IC50 (compound alone, run of 09/18/2023) is 216 nM [middle of 10 runs].

With `C=CC(=O)N1CCN(c2nc(=O)n(-c3c(C)ccnc3C(C)C)c3nc(-c4c(O)cccc4F)c(F)cc23)C(C)C1` (centres undefined), the viability, T/C runs as follows: (compound 0.0316 µM) 95% and 99.2%; (compound 0.1 µM) 94.5% and 92.9%; (compound 0.316 µM) 98.5% and 113%; (compound 1 µM) 108% and 115%; (compound 3.16 µM) 107% and 117%; (compound 10 µM) 98% and 109%. For the same compound, where the note is “curve of compound”, the IC50 was over 10 µM.

As for `CC(C)CC(NC(=O)C(Cc1ccccc1)NC(=O)c1cnccn1)B(O)O` (centres undefined), the viability, T/C is 96.3% and 107% (compound 0.000949 µM); 60.7% and 68.6% (compound 0.003 µM); 1.72% and 2.43% (compound 0.00949 µM); 2.65% and 0.78% (compound 0.03 µM); 0.47% and 0.54% (compound 0.0949 µM); 1.72% and 0.37% (compound 0.3 µM). In addition, the IC50 (curve of compound) is 0.0037 µM and 0.00415 µM.

As for `O=C(c1cc(Cc2n[nH]c(=O)c3ccccc23)ccc1F)N1CCN(C(=O)C2CC2)CC1` + CNC(=O)c1ccc(Nc2nc(OC3CCCC3)c3c(-c4ccc5nc(C)oc5c4)c[nH]c3n2)c(OC)c1, the IC50 is over 10 µM under setting [1]; over 10 µM under setting [2]; over 10 µM under setting [3]; over 10 µM under setting [4]; over 10 µM under setting [5]; over 10 µM under setting [6]. In addition, the viability, T/C under setting [7] is 112%; the viability, T/C under setting [8] is 125%; the viability, T/C under setting [9] is 115%; the viability, T/C under setting [10] is 129%; the viability, T/C under setting [11] is 124%; the viability, T/C under setting [12] was 113%. Further, the viability, T/C is 129% under setting [13]; 127% under setting [14]; 106% under setting [15]; 129% under setting [16]; 127% under setting [17]; 105% under setting [18]. The viability, T/C under setting [19] was 112%; the viability, T/C under setting [20] is 130%; the viability, T/C under setting [21] was 111%; the viability, T/C under setting [22] was 118%; the viability, T/C under setting [23] was 117%; the viability, T/C under setting [24] is 113%. The viability, T/C was 121% under setting [25]; 101% under setting [26]; 99% under setting [27]; 115% under setting [28]; 123% under setting [29]; 94% under setting [30]. The viability, T/C is 114% under setting [31]; 102% under setting [32]; 108% under setting [33]; 97.6% under setting [34]; 106% under setting [35]; 117% under setting [36]. Also, the viability, T/C by setting is: under setting [37], 98.5%; under setting [38], 97.8%; under setting [39], 92.6%; under setting [40], 121%; under setting [41], 109%; under setting [42], 104%.

As for `COc1ccc([C@@H](O)c2cc(-c3ncnc4cc(N5CCOCC5)ccc34)c(F)cc2Cl)nn1`, the viability, T/C is 96.2% and 103% (compound 0.0316 µM); 93.5% and 88.3% (compound 0.1 µM); 83.5% and 94.8% (compound 0.316 µM); 63.7% and 76.9% (compound 1 µM); 54.9% and 55.7% (compound 3.16 µM); 34.8% and 31.7% (compound 10 µM). Also, the IC50 (curve of compound) was 3.55 µM and 4.19 µM.

Turning to `Nc1ccccc1NC(=O)c1ccc(CNC(=O)OCc2cccnc2)cc1`, the viability, T/C was 104% and 85.5% (compound 0.0316 µM); 94.5% and 92.8% (compound 0.1 µM); 78.2% and 73.5% (compound 0.316 µM); 35.4% and 61.1% (compound 1 µM); 20% and 20.5% (compound 3.16 µM); 3.38% and 10.9% (compound 10 µM). Further, where the note is “curve of compound”, the IC50 was 0.713 µM and 1.28 µM.
